Experimental data from patent US10844062B2, “Pyridine derivative inhibiting RAF kinase and vascular endothelial growth factor receptor, method for preparing same, pharmaceutical composition containing same, and use thereof” (SAMJIN PHARMACEUTICAL CO., LTD., priority 2016, dated 2020).
pIC50: −log10 of the molar value.

tested on: LS513 KRAS G12V (colon); assay: MTT assay; format: cell-based; conditions: Homo sapiens, LS-513, 72 h, Table 4; 3 days incubation; read-out: MTT assay IC50 KRAS mutant (Colon) LS513 KRAS G12V
Outline: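 Cells were seeded at line-dependent density and stabilised overnight at 37 °C, then exposed to compounds for 3 days at 37 °C. MTT was then added for 2 h and the formazan dissolved in DMSO.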

SMILES	pIC50
O=C(Nc1cc(Nc2ncccc2-c2ncnc3[nH]cnc23)ccc1F)c1cccc(C(F)(F)F)n1 [Example 136, N-5-[(3-(9H-purin-6-yl)pyridin-2-yl)amino]-2-fluorophenyl-6-(trifluoromethyl) picolinamide]	5.64
Cc1cc(C(=O)Nc2cc(Nc3ncccc3-c3ncnc4[nH]cnc34)ccc2F)ccc1F [Example 137, N-5-[(3-(9H-purin-6-yl)pyridin-2-yl)amino]-2-fluorophenyl-4-fluoro-3-methylbenzamide]	5.98
Cc1ccc(C(=O)Nc2cc(Nc3ncccc3-c3ncnc4[nH]cnc34)ccc2F)cc1C(F)(F)F [Example 138, N-5-[(3-(9H-purin-6-yl)pyridin-2-yl)amino]-2-fluorophenyl-4-methyl-3-(trifluoromethyl)benzamide]	6.39
COc1cc(OC(F)(F)F)cc(C(=O)Nc2cc(Nc3ncccc3-c3ncnc4[nH]cnc34)ccc2F)c1 [Example 140, N-5-[(3-(9H-purin-6-yl)pyridin-2-yl)amino]-2-fluorophenyl-3-methoxy-5-(trifluoromethoxy)benzamide]	6.53
O=C(Nc1cc(Nc2ncccc2-c2ncnc3[nH]cnc23)ccc1F)c1cccc(C2CC2)c1 [Example 141, N-5-[(3-(9H-purin-6-yl)pyridin-2-yl)amino]-2-fluorophenyl-3-cyclopropylbenzamide]	6.35
O=C(Nc1cc(Nc2ncccc2-c2ncnc3[nH]cnc23)ccc1F)c1cc(Cl)cc(OC(F)(F)F)c1 [Example 142, N-5-[(3-(9H-purin-6-yl)pyridin-2-yl)amino]-2-fluorophenyl-3-chloro-5-(trifluoromethoxy)benzamide]	6.89
O=C(Nc1cc(Nc2ncccc2-c2ncnc3[nH]cnc23)ccc1F)c1ccc(F)c(OC(F)(F)F)c1 [Example 143, N-5-[(3-(9H-purin-6-yl)pyridin-2-yl)amino]-2-fluorophenyl-4-fluoro-3-(trifluoromethoxy)benzamide]	6.25
O=C(Nc1cc(Nc2ncccc2-c2ncnc3[nH]cnc23)ccc1F)c1cc(C(F)(F)F)ccn1 [Example 144, N-5-[(3-(9H-purin-6-yl)pyridin-2-yl)amino]-2-fluorophenyl-4-(trifluoromethyl) picolinamide]	6.35
Cc1cccc(C(=O)Nc2cc(Nc3ncccc3-c3ncnc4[nH]cnc34)ccc2F)c1 [Example 145, N-5-[(3-(9H-purin-6-yl)pyridin-2-yl)amino]-2-fluorophenyl-3-methylbenzamide]	5.99
O=C(Nc1cc(Nc2ncccc2-c2ncnc3[nH]cnc23)ccc1F)c1cccc(Cl)c1 [Example 146, N-5-[(3-(9H-purin-6-yl)pyridin-2-yl)amino]-2-fluorophenyl-3-chlorobenzamide]	5.77
O=C(Nc1cc(Nc2ncccc2-c2ncnc3[nH]cnc23)ccc1F)c1ccc(Cl)c(OC(F)(F)F)c1 [Example 147, N-5-[(3-(9H-purin-6-yl)pyridin-2-yl)amino]-2-fluorophenyl-4-chloro-3-(trifluoromethoxy)benzamide]	6.30
O=C(Nc1cc(Nc2ncccc2-c2ncnc3[nH]cnc23)ccc1F)c1ccnc(C(F)(F)F)c1F [Example 148, N-5-[(3-(9H-purin-6-yl)pyridin-2-yl)amino]-2-fluorophenyl-3-fluoro-2-(trifluoromethyl)isonicotinamide]	6.28
O=C(Nc1cc(Nc2ncccc2-c2ncnc3[nH]cnc23)ccc1F)c1cncc(C(F)(F)F)c1 [Example 149, N-5-[(3-(9H-purin-6-yl)pyridin-2-yl)amino]-2-fluorophenyl-5-(trifluoromethyl)nicotinamide]	6.05
COc1ccc(C(=O)Nc2cc(Nc3ncccc3-c3ncnc4[nH]cnc34)ccc2F)cc1OC(F)(F)F [Example 150, N-5-[(3-(9H-purin-6-yl)pyridin-2-yl)amino]-2-fluorophenyl-4-methoxy-3-(trifluoromethoxy)benzamide]	6.60
